Data: patent publication US10519147B2 (Merck Sharp & Dohme Corp., priority 2015, dated 2019)

What follows are molecules tested against T1, human Nav1.7 (Homo sapiens, UniProt Q15858) (assay: IonWorks Quattro automated patch-clamp, inactivated state block of Nav1.7). Details: not given.
T1 construct: expressed in transfected cells; host or cells: HEK 293
Type: cell-based
Description: Compounds were tested on human Nav1.7 and Nav1.5 channels stably expressed in HEK 293 cells. […] Cells were sealed on a planar substrate using the Population Patch […] (PPC) technology. Electrical access was obtained using both nystatin and amphotericin. A double-pulse protocol was used for the determination of IC50 values for inactivated state block. Nav1.7 and Nav1.5 expressing cells were voltage clamped at −100 mV and −110 mV, respectively. A depolarizing prepulse to −10 mV (Nav1.7) or −30 mV (Nav1.5) for 1000 ms followed by a 10 ms repolarization to −100 mV (Nav1.7) or −110 mV (Nav1.5) was given to generate fractional channel inactivation of 50%, followed by a 10 ms test pulse to −10 mV (Nav1.7) or −30 mV (Nav1.5) to measure peak current in control conditions and after compound addition. The following recording solutions were used (mM). External: 150 NaCl, 2 CaCl2, 5 KCl, 1 Mg Cl2, 10 HEPES, 12 Dextrose; internal: 120 CsF, 30 CsCl, 10 EGTA, 5 HEPES, 5 NaF, 2 MgCl2.
For all electrophysiology experiments, offline analysis was used to determine percent inhibition as a function of drug concentration. IC50 values were determined by fitting to the Hill equation.

T1 sequence (Q15858 whole entry): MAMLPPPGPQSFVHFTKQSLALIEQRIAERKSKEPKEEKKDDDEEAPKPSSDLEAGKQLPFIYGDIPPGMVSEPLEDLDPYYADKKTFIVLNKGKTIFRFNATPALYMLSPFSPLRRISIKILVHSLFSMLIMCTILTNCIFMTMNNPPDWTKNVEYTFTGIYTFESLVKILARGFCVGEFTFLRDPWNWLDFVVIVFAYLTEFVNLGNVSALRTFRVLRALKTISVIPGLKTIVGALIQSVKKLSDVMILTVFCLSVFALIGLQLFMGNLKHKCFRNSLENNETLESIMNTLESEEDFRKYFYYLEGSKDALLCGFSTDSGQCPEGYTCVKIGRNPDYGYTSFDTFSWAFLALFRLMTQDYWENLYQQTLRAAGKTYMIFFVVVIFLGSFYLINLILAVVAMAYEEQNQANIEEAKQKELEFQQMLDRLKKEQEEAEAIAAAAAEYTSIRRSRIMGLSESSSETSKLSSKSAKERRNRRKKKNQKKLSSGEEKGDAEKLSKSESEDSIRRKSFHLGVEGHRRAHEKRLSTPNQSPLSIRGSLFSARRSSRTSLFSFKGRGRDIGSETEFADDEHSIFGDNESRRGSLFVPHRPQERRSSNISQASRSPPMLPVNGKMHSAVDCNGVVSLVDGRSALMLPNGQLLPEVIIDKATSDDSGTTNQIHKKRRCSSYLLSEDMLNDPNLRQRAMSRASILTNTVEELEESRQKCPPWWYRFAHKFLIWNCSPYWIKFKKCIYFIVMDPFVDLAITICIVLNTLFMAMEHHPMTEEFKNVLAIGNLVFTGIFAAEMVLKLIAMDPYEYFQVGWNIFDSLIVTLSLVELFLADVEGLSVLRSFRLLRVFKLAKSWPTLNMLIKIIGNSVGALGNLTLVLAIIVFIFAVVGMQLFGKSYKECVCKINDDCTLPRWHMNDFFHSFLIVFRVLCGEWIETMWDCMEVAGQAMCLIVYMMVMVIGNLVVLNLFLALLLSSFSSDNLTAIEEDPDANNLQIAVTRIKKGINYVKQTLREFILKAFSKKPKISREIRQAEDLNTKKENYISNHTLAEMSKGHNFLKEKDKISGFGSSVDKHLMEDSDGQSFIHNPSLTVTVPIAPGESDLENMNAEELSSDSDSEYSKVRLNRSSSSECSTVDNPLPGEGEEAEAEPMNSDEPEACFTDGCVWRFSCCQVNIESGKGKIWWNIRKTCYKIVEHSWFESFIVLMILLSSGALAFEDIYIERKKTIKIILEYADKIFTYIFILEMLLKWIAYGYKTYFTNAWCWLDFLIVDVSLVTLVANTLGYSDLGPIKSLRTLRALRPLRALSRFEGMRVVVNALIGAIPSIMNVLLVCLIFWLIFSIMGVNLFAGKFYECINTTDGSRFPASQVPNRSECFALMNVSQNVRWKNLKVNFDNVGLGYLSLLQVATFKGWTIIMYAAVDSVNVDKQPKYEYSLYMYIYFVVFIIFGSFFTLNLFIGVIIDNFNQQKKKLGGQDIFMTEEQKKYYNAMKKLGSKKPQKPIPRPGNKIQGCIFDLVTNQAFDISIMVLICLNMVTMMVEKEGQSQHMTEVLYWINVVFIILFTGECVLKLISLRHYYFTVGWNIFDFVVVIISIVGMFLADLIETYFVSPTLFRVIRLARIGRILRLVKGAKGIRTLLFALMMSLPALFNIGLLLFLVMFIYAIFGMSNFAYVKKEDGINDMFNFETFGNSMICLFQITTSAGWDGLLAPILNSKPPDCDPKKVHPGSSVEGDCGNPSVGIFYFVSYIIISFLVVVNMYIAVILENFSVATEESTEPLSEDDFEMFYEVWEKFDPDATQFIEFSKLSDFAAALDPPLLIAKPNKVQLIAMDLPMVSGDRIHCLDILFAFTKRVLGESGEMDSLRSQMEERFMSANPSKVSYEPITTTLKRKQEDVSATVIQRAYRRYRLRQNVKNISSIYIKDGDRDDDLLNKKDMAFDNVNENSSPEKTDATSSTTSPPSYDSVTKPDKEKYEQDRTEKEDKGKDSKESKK

Compound	IC50 [nM]
CC(CCCNc1cc(F)c(S(=O)(=O)Nc2nccs2)cc1Cl)NC[C@@H]1CCCN1 (single isomer, unassigned)	12

Same assay, conditions: channels stably expressed in HEK 293 cells; double-pulse protocol, inactivated state block; read-out: potency for the Nav 1.7 sodium ion channel (IC50, as measured by IonWorks)

Compound	IC50 [nM]
CC(CCCNc1cc(F)c(S(=O)(=O)Nc2nccs2)cc1Cl)NC[C@@H]1CCCN1 (mixture of isomers)	11
O=S(=O)(Nc1nccs1)c1cc(Cl)c(NCCCCNC[C@H]2CCCCN2)cc1F [Ex 1-05, 5-chloro-2-fluoro-4-[(4-{[(2R)-piperidin-2-ylmethyl]amino}butyl)amino]-N-1,3-thiazol-2-ylbenzenesulfonamide]	10
O=S(=O)(Nc1nccs1)c1cc(Cl)c(NCCCCNC[C@@H]2CCCN2)cc1F [Ex 1-06, 5-chloro-2-fluoro-4-[(4-{[(2S)-pyrrolidin-2-yl-methyl]amino}butyl)-amino]-N-1,3-thiazol-2-yl-benzenesulfonamide]	15
CC(C)(CN)NCCCCNc1cc(F)c(S(=O)(=O)Nc2nccs2)cc1Cl [Ex 1-10, 4-({4-[(2-amino-1,1-dimethylethyl)amino]-butyl}amino)-5-chloro-2-fluoro-N-1,3-thiazol-2-yl-benzenesulfonamide]	28
CN(CCN)CCCCNc1cc(F)c(S(=O)(=O)Nc2nccs2)cc1Cl [Ex 1-15, 4-({4-[(2-aminoethyl) (methyl)amino]butyl}amino)-5-chloro-2-fluoro-N-1,3-thiazol-2-ylbenzenesulfonamide]	29
N[C@H]1CCCC[C@H]1NCCCCNc1cc(F)c(S(=O)(=O)Nc2nccs2)cc1Cl [Ex 1-30, 4-[(4-{[(1R,2S)-2-aminocyclohexyl]amino}butyl)amino]-5-chloro-2-fluoro-N-1,3-thiazol-2-ylbenzenesulfonamide]	19
O=S(=O)(Nc1nccs1)c1cc(Cl)c(NCCCCNCC2CNC2)cc1F [Ex 5-03, 4-((4-((azetidin-3-ylmethyl)amino)butyl)amino)-5-chloro-2-fluoro-N-(thiazol-2-yl)benzenesulfonamide]	34
CNCCNCCCCNc1cc(F)c(S(=O)(=O)Nc2nccs2)cc1Cl [Ex 5-04]	12
O=S(=O)(Nc1nccs1)c1cc(Cl)c(NCCCCNC[C@H]2CCCN2)cc1F [Ex 7-6, (R)-5-chloro-2-fluoro-4-((4-((pyrrolidin-2-ylmethyl)amino)butyl)amino)-N-(thiazol-2-yl)benzenesulfonamide]	34
O=S(=O)(Nc1ncns1)c1cc(Cl)c(NCCCCNC[C@@H]2CCCN2)cc1F [Ex 7-8, 5-chloro-2-fluoro-4-[(4-{[(2S)-pyrrolidin-2-ylmethyl]amino}butyl)amino]-N-1,2,4-thiadiazol-5-ylbenzenesulfonamide]	10
O=S(=O)(Nc1ncc(Cl)s1)c1cc(Cl)c(NCCCCNC[C@@H]2CCCN2)cc1F [Ex 7-9, 5-chloro-N-(5-chloro-1,3-thiazol-2-yl)-2-fluoro-4-[(4-{[(2S)-pyrrolidin-2-ylmethyl]amino}butyl)amino]benzenesulfonamide]	29
O=S(=O)(Nc1nccs1)c1cc(Br)c(NCCCCNC[C@@H]2CCCN2)cc1F [Ex 7-10, 5-bromo-2-fluoro-4-[(4-{[(2S)-pyrrolidin-2-ylmethyl]amino}butyl)amino]-N-1,3-thiazol-2-ylbenzenesulfonamide]	16
O=S(=O)(Nc1ncc(F)s1)c1cc(Cl)c(NCCCCNC[C@@H]2CCCN2)cc1F [Ex 7-11, 5-chloro-2-fluoro-N-(5-fluoro-1,3-thiazol-2-yl)-4-[(4-{[(2S)-pyrrolidin-2-ylmethyl]amino}butyl)amino]benzenesulfonamide]	9.9
C[C@@H]1CN[C@H](CNCCCCNc2cc(F)c(S(=O)(=O)Nc3nccs3)cc2Cl)C1 [Ex 8-09, 5-chloro-2-fluoro-4-{[4-({[(2S,4S)-4-methylpyrrolidin-2-yl]-methyl}amino)butyl]amino}-N-1,3-thiazol-2-yl-benzenesulfonamide]	18
C[C@H]1CC[C@@H](CNCCCCNc2cc(F)c(S(=O)(=O)Nc3nccs3)cc2Cl)N1 [Ex 8-10, 5-chloro-2-fluoro-4-{[4-({[(2S,5S)-5-methylpyrrolidin-2-yl]-methyl}amino)butyl]amino}-N-1,3-thiazol-2-yl-benzenesulfonamide]	16
